Assay results published in patent US20120177742A1, “NANOPARTICLE AND SURFACE-MODIFIED PARTICULATE COATINGS, COATED BALLOONS, AND METHODS THEREFORE” (MICELL TECHNOLOGIES, INC., priority 2010, published 2012).
Where “and” joins values, the source holds several entries; their conditions need not be identical. Equal entries are not always repeated. Where two headings read alike, the source gives them in different places. Marks after values point to notes of the source that are not given here.

What was measured:
[1] = Rapamycin coating affinity testing: distribution between solid and liquid phases with surfactant in water (UV-Vis); format: physicochemical; conditions: for Cal. Rapa (Sediment) / Cal. Rapa (Supernate): calculated from UV-Vis absorbance; for Cal. Rapa (Sediment): in mg (unit assumed); for Cal. Rapa (Supernate): unit assumed; for total (% original) / total (% of original): percent recovery of initial rapamycin loading
Description: One method of applying a positive surface charge to the coating is to add DMAB to the coating such that it is on its surface, at least. […] The coating is then sintered according to the RESS process. […] Care should be taken in certain embodiments to optimize the DMAB's application to the balloon and to handle the balloon thereafter to keep the DMAB from washing off. […] The initial mass of rapamycin is shown in the column labeled “Original rapa.” The supernatant (liquid phase) contains the material of interest as it is drug particles coated with the surfactant modifier. The values presented in the columns labeled “Cal. Rapa” are calculated from the UV-Vis absorbance spectrum of the sediment or supernatant respectively. The ratio of these two values determined the partition coefficient between the sediment and supernatant (reported in the column labeled “ratio”).
The initial mass of rapamycin is shown in the column labeled “Original rapa.” The supernatant (liquid phase) contains the material of interest as it is drug particles coated with the surfactant modifier. The values presented in the columns labeled “Cal. Rapa” are calculated from the UV-Vis absorbance spectrum of the sediment or supernatant respectively. The ratio of these two values determined the partition coefficient between the sediment and supernatant (reported in the column labeled “ratio”).

[2] = Study 1 balloons left uninflated in rabbit aorta, exposed to blood flow: drug lost
in vivo = conditions: rabbit, iliac artery wall, other: coated balloon catheter deployed in iliac arteries
Description: The coated balloons were sterilized and then used in a rabbit animal study. The balloons were deployed at the target sites (iliac arteries) in the rabbits in the study, two balloons per animal. […] The amount of drug per tissue was determined using a LC-MS test method. Liquid chromatography-mass spectrometry (LC-MS) was used to determine the amount of drug per tissue. Prior to LC-MS, artery samples were homogenized using an Omni hand held probe (1:99 w:v in 80:20 MeOH:2 mM Ammonium Acetate in water with 0.1% Formic Acid). The density of the artery was assumed to be 1 g/mL
Balloons were inflated for a minimum of one minute. […] The estimated time the artery was exposed to blood flow was also tracked, and refers to the amount of time after the balloon was inflated.

[3] = Sirolimus concentration in rabbit blood after inflation of two coated balloons per animal; format: in vivo
Description: After a 2d balloon inflation, blood samples were taken at the given time points (0 h, 6 h, 24 h).

[4] = 1:1 Surfactant to Rapa (w/w), 10x dilution in water
[5] = 1:1 Surfactant to Rapa, 10x dilution
[6] = 1:1 Surfactant to Rapa, 10x dilution, partition between supernatant and sediment
[7] = 1:10 Surfactant to Rapa (w/w), 100x dilution in water
[8] = 1:10 Surfactant to Rapa, 100x dilution
[9] = 10:1 Surfactant to Rapa (w/w), 6x dilution in water
[10] = 10:1 Surfactant to Rapa, 6x dilution

Compound	Sediment wt [1, 4] [mg]	Cal. Rapa (Sediment) [1, 5]	Cal. Rapa (Supernate) [1, 5] [mg]	ratio super/sed [1, 6]	total (% original) [1, 5] [%]	Sediment wt [1, 7] [mg]	ratio super/sed [1, 8]	Cal. Rapa (Sediment) [1, 8]	Cal. Rapa (Supernate) [1, 8] [mg]	total (% of original) [1, 8] [%]	Sediment wt [1, 9] [mg]	ratio super/sed [1, 10]	Cal. Rapa (Sediment) [1, 10]	Cal. Rapa (Supernate) [1, 10] [mg]	total (% of original) [1, 10] [%]	also measured
CCCCCCCCCCCC[N+](C)(C)CCCCCCCCCCCC.[Br-] [DMAB, didodecyldimethylammonium bromide]	2.2	1.23	0.64	0.52	98.4	8.52	0.06	7.23	0.4	79.5	3.73	0.83	1.23	1.02	107.1	
CCCCCCCCCCCCCC[N+](C)(C)CCCCCCCCCCCCCC.[Br-] [Dimethylditetradecylammonium bromide, Dimethylditetradecyl Ammonium bromide]	2.28	1.9	0.59	0.31	113.2						1.9	1.42	0.85	1.21	110.2	
CCCCCCCCCCCC[N+](C)(C)C.[Br-] [Dodecyltrimethylammonium Bromide, Dodecyltrimethyl Ammonium Bromide]	1.99	1.65	0.5	0.30	108.6	7.7	0.20	6.6	1.33	81.9	2.56	0.65	1.2	0.78	87.6	
CCCCCCCCCCCCCCCC[N+](C)(C)CC.[Br-] [Ethylhexadecyldimethylammonium Bromide]	3.85	1.37	0.33	0.24	89.5	8.6	0.15	6.86	1.05	80.2	3.21	31.50	0.04*	1.26	59.6	
CCCC[N+](CCCC)(CCCC)CCCC.[I-] [Tetrabutylammonium iodide]	2.1	1.97	0.6	0.30	114.2						2.05	0.39	1.07	0.42	80.1	
CCCCCCCCCCCC[N+](CCCCCCCCCCCC)(CCCCCCCCCCCC)CCCCCCCCCCCC.[Br-] [Tetradodecylammoniumbromid, Tetradodecylammonium bromide]	6.31	1.51	0.25	0.17	88.0						3.6	0.31	1.24	0.39	73.1	
CO[C@H]1C[C@@H]2CC[C@@H](C)[C@@](O)(O2)C(=O)C(=O)N2CCCC[C@H]2C(=O)O[C@H]([C@H](C)C[C@@H]2CC[C@@H](O)[C@H](OC)C2)CC(=O)[C@H](C)/C=C(\C)[C@@H](O)[C@@H](OC)C(=O)[C@H](C)C[C@H](C)/C=C/C=C/C=C/1C [sirolimus]																sirolimus removed from balloons before inflation ([2]; Study 1 balloons): 65.6±1.3%; average percent drug (sirolimus) lost ([2]; four Study 1 balloons left uninflated two minutes in rabbit aorta, exposed to blood flow, based on batch average UV-Vis): 65.6%; concentration at 0 h (in vivo): 197000 ± 85300 ng/g; Total Sirolimus per Artery (Denuded Arteries, rabbit iliac, 0 h, artery exposed to blood flow 5 or 10 min, single arteries and Average): 7.36 µg and 4.62 µg and 5.75 µg and 4.46 µg and 3.92 µg and 4.27 µg; drug (sirolimus) transferred to artery (Study 1 balloons): 1-5%; sirolimus washed away into circulation (Study 1 balloons, 0 h): 5.4 ± 2.3 µg; Est. Total Sirolimus in Blood Normalized to Human ([3]; 6 hr, based on 5 L of blood in the average human): 0.08 ng/mL and 0.07 ng/mL and 0.06 ng/mL; Est. Total Sirolimus in Blood ([3]; 6 hr, based on 56 mL per kg in rabbits): 0.5 µg and 0.4 µg and 0.3 µg; time within which drug released from balloon and/or artery was cleared from the blood ([3]; rabbit, after balloon inflation): ≤ 24 h; concentration at 0 h ([3]; rabbit, blood, other: coated balloon catheters inflated in iliac arteries, rabbit blood, 0 Hr, two coated balloons per animal, single animals and Average, read-out: Post-Inflation Conc.): 8.35 ng/mL; concentration at 6 h ([3]; rabbit, blood, other: coated balloon catheters inflated in iliac arteries, rabbit blood, 6 hr, two coated balloons per animal, single animals and Average, read-out: Post-Inflation Conc.): 2.82 ng/mL; concentration at 6 h ([3]; rabbit, whole blood, other: inflation of drug-coated balloons in iliac arteries, Est. Total Sirolimus in Blood Normalized to Human, 6 hr, based on 5 L of blood in the average human): 0.1 ng/mL
Poly Histidine	7.21	1.61	0.32	0.20	92.8	7.9	0.18	7.06	1.29	78.8	2.85	0.30	0.94	0.28	65.6	
Poly-L-Arginine (average or nominal MW of about 5,000 to about 15,000 Da) [Poly Arginine 5,000-15,000]	3.72	1.24	0.3	0.24	72.6	6.5	0.21	5.36	1.15	66.2	5.11	0.46	1.1	0.51	84.3	
Poly-L-Arginine (average or nominal MW of about 70,000 Da) [Poly Arginine 70,000]	11.7	1.49	0.73	0.49	100.9	7.9	0.15	6.95	1.01	77.9	2.81	0.18	1.18	0.21	72.0	
Poly-L-Lysine (average or nominal MW of about 28,200 Da) [Poly Lysin 28,200]	4.89	1.36	0.35	0.26	85.9	7.4	0.11	7	0.74	80.2	4.3	0.11	1.2	0.13	63.0	
Poly-L-Lysine (average or nominal MW of about 67,000 Da) [Poly Lisine 66,700]	1.85	1.43	0.33	0.23	93.6						2.9	0.10	1.2	0.12	55.2	
